{"source": "patent US10294202B2", "about": "“Pyrrolidinones as herbicides” (FMC Corporation, priority 2013, dated 2019)", "key": {"waterplantain": {"tested_on": "waterplantain", "test": "Test F flood (paddy) test", "assay_type": "in vivo, Alisma plantago-aquatica", "settings": "21 d, scale 0-100", "excerpt": "(§1) Three plastic pots (ca. 16-cm diameter) per rate were partially filled with sterilized Tama silt loam soil comprising a 35:50:15 ratio of sand, silt and clay and 2.6% organic matter. Separate plantings for each of the three pots were as follows. Seeds from the U.S. of monochoria (Monochoria vaginalis), sedge, umbrella (small-flower umbrella sedge, Cyperus difformis), bulrush, […] bulrush, Scirpus juncoides), and […] (purple […] coccinea), were planted into one 16-cm pot for each rate. Seeds from the U.S. of flatsedge, rice (rice flatsedge, Cyperus iria), sprangletop, Brdd. (bearded sprangletop, Leptochloa fascicularis), one stand of 9 or 10 water seeded rice seedlings (Rice, W.S. Jap, Oryza sativa cv. 'Japonica-[…]' or Rice, W.S. Ind, 'Indica'), and two stands of 3 or 4 seedlings of rice, transplanted (transplanted rice, Oryza sativa cv. 'Japonica-[…]') were planted into one 16-cm pot for each rate. Seeds from the U.S. of barnyardgrass (Echinochloa crus-galli), […] (common […], Alisma plantago-aquatica), and watergrass, late (late watergrass, Echinochloa oryzicola) were planted into one 16-cm pot for each rate. Plantings were sequential so that crop and weed species were at the 2.0 to 2.5-leaf stage at time of treatment. Potted plants were grown in a greenhouse with day/night temperature settings of 30/27° C., and supplemental balanced lighting was provided to maintain a 16-h photoperiod. Test pots were maintained in the greenhouse until test completion. At time of treatment, test pots were flooded to 3 cm above the soil surface, treated by application of test compounds directly to the paddy water, and then maintained at that water depth for the duration of the test. Effects of treatments on rice and weeds were visually evaluated by comparison to untreated controls after 21 d. Plant response ratings, summarized in Table F, are based on a scale of 0 to 100 where 0 is no effect and 100 is complete control. A dash (-) response means no test result."}, "deadnettle": {"tested_on": "deadnettle", "test": "Test C postemergence herbicide test", "assay_type": "in vivo, Lamium amplexicaule", "excerpt": "At the same time, plants selected from these crop and weed species and also barley (winter barley, Hordeum vulgare), […]), chickweed (common chickweed, Stellaria media), deadnettle (henbit deadnettle, Lamium amplexicaule), and canarygrass (littleseed canarygrass, Phalaris minor) were planted in pots containing Redi-Earth® planting medium (Scotts Company, 14111 Scottslawn Road, Marysville, Ohio 43041) comprising spaghnum peat moss, vermiculite, wetting agent and starter nutrients and treated with postemergence applications of test chemicals formulated in the same manner. Plants ranged in height from 2 to 18 cm (1- to 4-leaf stage) for postemergence treatments. Treated plants and controls were maintained in a greenhouse for 13 to 15 days, after which time all species were compared to controls and visually evaluated. Plant response ratings, summarized in Table C, are based on a scale of 0 to 100 where 0 is no effect and 100 is complete control. A dash (-) response means no test result."}, "giant foxtail (SETFA)": {"tested_on": "giant foxtail (SETFA)", "test": "Test H preemergence mixture test (Colby)", "assay_type": "in vivo, Setaria faberii", "settings": "for Plant response rating, Obsd., SETFA: 21 d after treatment, scale 0 to 100; for SETFA Obsd.: applied alone, 21 d, mean of three replicates, scale 0-100", "excerpt": "Colby's Equation was used to determine the herbicidal effects expected from the mixtures. Colby's Equation (Colby, S. R. “Calculating Synergistic and Antagonistic Responses of Herbicide Combinations,” Weeds, 15(1), pp 20-22 (1967)) calculates the expected additive effect of herbicidal mixtures and for two active ingredients is of the form: Pa+b=Pa+Pb−(PaPb/100)\nwhere • Pa+b is the percentage effect of the mixture expected from additive contribution of the individual components: • Pa is the observed percentage effect of the first active ingredient at the same use rate as in the mixture, and • Pb is the observed percentage effect of the second active ingredient at the same use rate as in the mixture. In the following Tables, rates are shown in grams of active ingredient per hectare (g a.i./ha); “Obsd.” is the observed effect. “Exp.” is the expected effect calculated from Colby's Equation.\nThis test evaluated the effect of mixtures of compound 80 with several commercial herbicides on four plant species. Seeds of plant species selected from corn (ZEAMD, Zea mays), soybean (GLXMA, Glycine max), waterhemp (common waterhemp, AMATA, Amaranthus rudis), and giant foxtail (SETFA, Setaria faberii) were planted into a silt loam soil and treated preemergence with test chemicals formulated in a non-phytotoxic solvent mixture which included a surfactant and applied using a volume of 281 L/ha. Each treatment was replicated three times. Treated plants and controls were maintained in a greenhouse using supplemental lighting to maintain a photoperiod of about 16 h; daytime and nighttime temperatures were about 24-30° C. and 19-21° C., respectively. Nutrients were applied using a balanced fertilizer applied through the watering system. At 21 d after treatment, all species were compared to controls and visually evaluated. Plant response ratings were calculated as the means of the three replicates, are summarized in Tables H1 through H5, and are based on a scale of 0 to 100 where 0 is no effect and 100 is complete control. A dash (-) response means no test result. The Expected (Exp.) results were calculated using Colby's Equation as described for Test G above."}, "Rice, Water Seeded": {"tested_on": "Rice, Water Seeded", "test": "Test F flood (paddy) test", "assay_type": "in vivo, Oryza sativa", "settings": "62 g ai/ha, 21 d, scale 0-100", "excerpt": "as §1, with “Potted plants were grown in a greenhouse with day/night temperature settings of 30/27° C., and supplemental balanced lighting was provided to maintain a 16-h photoperiod. Test pots were maintained in the greenhouse until test completion. At time of treatment, test pots were flooded to 3 cm above the soil surface, treated by application of test compounds directly to the paddy water, and then maintained at that water depth for the duration of the test.” left out, “Plant response ratings, summarized in Table F, are based on a scale of 0 to 100 where 0 is no effect and 100 is complete control. A dash (-) response means no test result.” left out"}}, "data": [{"smiles": "O=C1NCCC1C(=O)N(c1ccc(F)c(F)c1)c1ccccc1F", "note": "(centres unmarked) [Compound 5, N-(3,4-difluorophenyl)-N-(2-fluorophenyl)-2-oxo-3-pyrrolidinecarboxamide]", "values": [{"measurement": "Plant response rating, Waterplantain", "setting": "waterplantain; 125 g ai/ha", "result": 55}, {"measurement": "Plant response rating, Waterplantain", "setting": "waterplantain; 250 g ai/ha", "result": 70}, {"measurement": "Plant response rating, Waterplantain", "setting": "waterplantain; 500 g ai/ha", "result": 80}, {"measurement": "Plant response rating, Waterplantain", "setting": "waterplantain; 1000 g ai/ha", "result": 85}, {"measurement": "Plant response rating, Waterplantain", "setting": "waterplantain; 2000 g ai/ha", "result": 90}]}, {"smiles": "O=C1NCC(c2ccc(F)c(F)c2)C1C(=O)Nc1cccc(F)c1F", "note": "(centres unmarked) [Compound 17, N-(2,3-difluorophenyl)-4-(3,4-difluorophenyl)-2-oxo-3-pyrrolidinecarboxamide]", "values": [{"measurement": "Plant response rating, Deadnettle", "setting": "deadnettle; 31 g ai/ha, scale 0 (no effect) to 100 (complete control)", "result": 0}, {"measurement": "Plant response rating, Deadnettle", "setting": "deadnettle; 62 g ai/ha, scale 0 to 100 (0 no effect, 100 complete control)", "result": 0}, {"measurement": "Plant response rating, Deadnettle", "setting": "deadnettle; 125 g ai/ha, scale 0 to 100 (0 no effect, 100 complete control)", "result": 0}, {"measurement": "Plant response rating, Deadnettle", "setting": "deadnettle; 250 g ai/ha, scale 0 to 100 (0 no effect, 100 complete control)", "result": 0}]}, {"smiles": "O=C1NCC(c2ccc(C(F)(F)F)cc2)C1C(=O)Nc1cccc(F)c1F", "note": "(centres unmarked) [Compound 80, N-(2,3-difluorophenyl)-2-oxo-4-[4-(trifluoromethyl)phenyl]-3-pyrrolidinecarboxamide]", "values": [{"measurement": "Plant response rating, Obsd., SETFA", "setting": "giant foxtail (SETFA); Cmpd 80 alone 62 g a.i./ha", "result": 52}, {"measurement": "Plant response rating, Obsd., SETFA", "setting": "giant foxtail (SETFA); Cmpd 80 alone 125 g a.i./ha", "result": 78}, {"measurement": "SETFA Obsd.", "setting": "giant foxtail (SETFA); 62 g a.i./ha", "result": 52}, {"measurement": "SETFA Obsd.", "setting": "giant foxtail (SETFA); 125 g a.i./ha", "result": 78}]}, {"smiles": "CN1CC(c2ccc(F)c(F)c2)C(C(=O)Nc2cccc(F)c2F)C1=O", "note": "(centres unmarked) [Compound 303]", "values": [{"measurement": "Plant response rating, Rice, Water Seeded", "setting": "Rice, Water Seeded", "result": 0}]}]}
